Like-named read-outs stand apart in the source and are kept apart here. Where a SMILES comes first, the peptide text is derived from it.

As usually defined, the IC50 is the concentration that inhibits the measured activity by half.

Data set [1] deals with intracellular tachyzoites of T. gondii. The note with it: in vitro; cited from earlier work. An excerpt: From a parasitological point of view, the fact that the nanoparticles developed here are effective against T. gondii, also without KP, is very intriguing and represents a novel finding. In fact, to the best of our knowledge, no literature describes a parasiticidal role of hyaluronate; while some studies have investigated the parasiticidal activity of chitosan-based nanoparticles, this was limited to the extracellular form or fre ...

How the values of data set [2] were obtained: Before formulation, peptide solubility and gelation properties were evaluated by dispersing the powder in different solvents, namely ultrapure water, phosphate-buffered saline, ethanol, methanol, or isopropanol, to evaluate its solubility and gelation properties and select the more appropriate formulative approach by microfluidics.
The solubility of KP and the flowability of the resulting solution are critical elements for microfluidic processing, since viscous solutions cannot be used, as they alter laminar flow conditions or clog the chip’s channels. For this reason, common solvents were screened to select those providing the highest solubility, to prevent spontaneous precipitation of the peptide, without neglecting their acceptability from the toxicological point of view.

Data set [3] is described as follows: Stability of free KP and KP-NPs under stress conditions (60 °C, acid, alkali). The following applies: 2 h, Micro BCA. As to the method: Moreover, KP-NPs were exposed to harsh conditions, to assess the ability of the formulation to protect KP from environmental degradation. […] These three samples were exposed to high temperatures (60 °C) for 2 h, then particle size and KP content were evaluated as described above.
To further assess the stability of KP-NPs and their potential protective effect on KP, both free KP and KP-NPs were subjected to harsh stress conditions, namely high temperature (60 °C) and strong acidic or alkaline environment (0.1 M HCl or NaOH) for two hours. […] As for nanoparticles, particle size was checked (Table 3), and the amount of KP released quantified.

Data set [4] has as its system T. gondii β-gal-RH (Type I) intracellular tachyzoites in HFFs. Kind of data set: Toxo-β-gal assay, post-infection model (intracellular parasites). The format is cell-based, Toxoplasma gondii. The note with it: dose-response, 48 h. As to the method: T. gondii β-gal-RH (Type I) is a genetically modified strain constitutively expressing β-galactosidase under the control of the promoter SAG1 (constitutive promoter). Susceptibility of T. gondii β-gal to the tested compounds was assessed by determining IC50 values based on β-galactosidase assay, as described by Păunescu et al. Briefly, HFFs (5 × 10^3/well) were seeded into 96-well plates, and once confluent, 200 µL of a suspension of parasites prepared in DMEM + 10% FBS at the concentration of 7.5 × 10^4/mL was added to each well resulting in 1.5 × 10^4 parasites per well.
Plates were incubated for 48 h 37 °C, 5% CO2, then cultures were washed once with 200 μL/well of PBS 1×. […] In total, 10 μL of 5 mM chlorophenol red-β-D-galactopyranoside (CPRG) was added to each well, and the reaction was monitored until saturation (usually reached in 30 min) by repeatedly measuring absorbance at 570 nm. The values obtained from the initial readings were subtracted from the respective final readings, and from these, the averages of each group were calculated. This was followed by calculation of the standard deviation and the calculation of percentage (normalized) absorbance, which was obtained from a ratio between the mean of the treatments and the mean of the negative control (DMEM 10% FBS), multiplied by 100. […]

Data set [5] relates to T. gondii free tachyzoites. Description: Free tachyzoites exposure, parasite quantification by real-time PCR (B1 gene). The format is cell-based, Toxoplasma gondii. The procedure:
Additionally, the same experiment was performed in duplicate to extract DNA for subsequent quantification of the parasite using real-time PCR CFX96™ Biorad® (version 3.1) (without using coverslips in the wells). The protocol by Santoro et al., amplifying the target B1 gene using Taqman technology, was optimized by defining the appropriate annealing temperature and amplification cycles. A standard curve for quantification was generated using T. gondii RH-WT grown in HFF cells, to ensure consistency in the results. DNA was extracted with the commercial kit Invitrogen PureLink™ Genomic DNA Mini Kit (Thermo Fisher Scientific, Waltham, Massachusetts, USA) from infected cells (control/treatment) 48 h after seeding, and it was used for amplification of the B1 gene.
The resulting product was loaded onto an agarose gel, and the corresponding band was excised for DNA quantification (12.3 ng/µL). From this, the number of copies per µL (1.1 × 10^11) was calculated using Copy Number Calculator (accessed on 11 April 2025)), and a standard curve was generated via serial dilutions (starting from a concentration of 10^8 copies of DNA/µL down to 10^2 copies of DNA/µL). Each condition was tested in four wells; three independent experiments were conducted.
(In general: Real-time PCR tracks product formation cycle by cycle.)

The conditions of data set [6]: supplier data; ref Thermo Scientific; cited from earlier work. An excerpt: Killer peptide ([…], MW: 998.2, isoelectric point: 8.97) was acquired from Thermo Scientific (Rockford, IL, USA). Sodium hyaluronate (Hyal, MW: 15–30 kDa) was obtained from Contipro (Praha, Czech Republic). Chitosan (Chito, MW: 66 kDa, degree of deacetylation: 96%) was from Primex (Siglufjordur, Iceland). Acetic acid was from Merck. Ultrapure (UP) water was obtained by inverse osmosis using an Arium Comfort® system by Sartorius (Gottingen, Germany). Solvents and reagents were from Avantor, VWR, unless otherwise specified. Resazurin and chlorophenol red-β-D-galactopyranoside (CPRG) were ...

[7] abbreviates: real-time PCR B1 gene, 48 h, KP 250 µg/mL or corresponding NPs.

For spiramycin, the IC50 in data set [1] is on record as 218 µg/mL.
`CSCC[C@H](NC(=O)[C@@H](NC(=O)[C@@H](NC(=O)[C@H](CCCCN)NC(=O)[C@H](C)N)C(C)C)[C@@H](C)O)C(=O)N[C@H](C(=O)N[C@@H](CS)C(=O)N[C@@H](CO)C(=O)N[C@@H](C)C(=O)N[C@@H](CO)C(=O)O)[C@@H](C)O` [KP] (H-AKVTMTCSAS-OH; N-terminus and C-terminus assumed): in data set [2] (KP 3.5 mg/mL, room temperature), the “Sol-gel transition kinetics in water” value is “over the course of two days”. For the same compound, the “Sol-gel transition kinetics in water” value in data set [2] (KP 5 mg/mL) is “almost instantaneous”. In data set [2] (after dissolution at 2 mg/mL), the Gelation in ethanol entry was “almost immediate transition, leading to the formation of a thick gel”. Moreover, the Solubility in ethanol in data set [2] (at least up to) was not below 2000 µg/mL. Besides, the “Solubility in PBS” value in data set [2] (phosphate-buffered saline) is “practically insoluble”. In data set [2] (powder dispersed in solvent), the Solubility in acetone entry is reported as “practically insoluble” and the Solubility in isopropanol result was “practically insoluble”. This compound also displayed a Solubility in methanol in data set [2] (verified up to) not below 2000 µg/mL. The “Recovery of peptide after stress” value in data set [3] (acidic conditions (0.1 M HCl), 60 °C) is “full recovery”. Moreover, the “Peptide degraded after stress” value in data set [3] (alkaline conditions (0.1 M NaOH), 60 °C) is “approximately 20%”. Also, the “Recovery of peptide after stress” value in data set [3] (high temperature (60 °C)) is “full recovery”. Besides, the “Efficacy against intracellular T. gondii (in words)” value in data set [4] is “did not exhibit any efficacy”. Besides, in data set [5] (compared to the control (DMEM), KP 250 µg/mL or corresponding NPs), the “% Reduction Rate (parasite load)” value is 94.6%. Further, in data set [5] (setting [7]), the “Log SQ” value came out at 3.741 and the “SQ Mean” value came out at 6041. Moreover, the “Cq Mean” value in data set [5] (real-time PCR B1 gene, DNA extracted 48 h after seeding, KP 250 µg/mL or corresponding NPs) is listed as 28.17. In data set [5] (vs DMEM control), this compound came in with an FC of 0.072 and a ΔCq of 3.80. Moreover, the isoelectric point in data set [6] was 8.97.
